Data: publication PMC8851282, “Senolysis induced by 25-hydroxycholesterol targets CRYAB in multiple cell types” (iScience, 2022)

Legend:
[1] = test system: mouse dermal fibroblasts (mDFs); assay: Cell viability assay of NS and SEN mouse dermal fibroblasts treated with CRYAB and HMOX1 inhibitors; format: cell-based; details: 250 nM Doxo-induced senescence; after 72 h of treatment; 25HC at five or 10 μM
Experimental: The average value of DMSO was set at 1. (B and D) Effects of CRYAB and HMOX1 inhibitors on DMSO-treated NS or Doxo-treated SEN cells; (B) mDFs, (D) IMR-90s. Cells were treated with the inhibitors at the indicated concentrations. Cell viability was measured after 72 h. (C) IMR-90 qRT-PCR. For qPCR: mean +/- SE, n =4, ∗p< 0.05, ∗∗p< 0.01, ∗∗∗p<0.001, ∗∗∗∗p<0.0001 by Dunnett’s multiple comparisons test vs DMSO. For cell viability assays: mean +/- SE, n =3, ∗∗p< 0.01, ∗∗∗p<0.001, ∗∗∗∗p<0.0001 vs 0 mM by student’s t test.
For skin sample collection, mice were euthanized, hair removed from dorsal skin and the area cleaned with alcohol. A small 1 cm x 1 cm region of skin was removed, and subcutaneous fat removed by scalpel. Skin was digested in 2–3 ml of 0.25% trypsin at 37 °C for 1 h. Hair and epidermis were further removed, and the dermis was minced into 2–3 mm pieces. Digestion of the sample in 5 ml of 1 mg/ml collagenase (Sigma, Cat#C5138) in HBSS (with Ca^++ and Mg^++) (Gibco, cat#24020117) was carried out at 37 °C on a shaker for 1 h. Collagenase digestion was stopped by addition of 10 ml 10% FBS DMEM. Filtration of the homogenate through a 70-micron mesh was performed to remove undigested tissue. Differential centrifugation and washing were performed at 1200 rpm for 5 min, and the pellet was resuspended in 10% FBS DMEM then seeded in a six-well plate. Media were changed at 5 days after seeding and then every 3 days.
(§1) All experiments were performed in incubators at 37 °C, 3% O2 and 5% CO2. Senescence was induced by treatment with either Doxo (250 nM for 24 h) ([Demaria et al., 2017]) or X-irradiation (10 Gy) ([Limbad et al., 2020]). For cell culture studies using 25HC, it was used at the indicated concentrations in the media.
(§2) Cell viability was assessed using a cell counting kit-8 from Dojindo Molecular Technologies, Inc (Cat CK04-20). Cells were incubated with culture media + 10% kit cell viability reagent, 150 μL/well in 96-well plates for 2 h. The supernatant was transferred to a new 96-well plate and absorbance read at 450 nm as recommended in the product datasheet.

SCs = assay: Cell viability assay (cell counting kit-8) of senescent and non-senescent SCs treated with inhibitors; format: cell-based, mouse
Experimental: Figure 3 25HC is a senolytic in multiple muscle cell types (A) Targets, compounds, and mechanisms. (B) Timeline of cell viability assay with inhibitors. Cells were pre-cultured for 24 h, treated with Doxo for 24 h, and then treated with inhibitors. Cell viability was analyzed from day 0–7. (C–E) Effects of inhibitors on viability of FAPs, SCs, and HSMMs. Cells were treated with inhibitors at the indicated concentrations. Cell viability was analyzed on day 3 (HSMMs) or 5 (FAPs and SCs). Blue and red dots indicate non-senescent (NS) and senescent (SEN), respectively. The average value at 0 μM for each group was set at 100% cell viability. p values versus NS were obtained using unpaired two-tailed Student’s t test. ∗p < 0.05, ∗∗p < 0.01, and ∗∗∗p < 0.001.
Figure 4 EC50 fitted curves (triplicates) of inhibitor effects at 3 and 7 days in FAPS and SCs EC50 was defined as the concentration of inhibitors that provokes a response halfway between baseline and maximum senolytic activity. EC50 values were determined by four- parameter logistic modeling using GraphPad Prism 8.0.
Hind limb muscles were digested in DMEM containing 0.5% (w/v) collagenase type II (Worthington) for 90 min at 37 °C with trituration and passed through a 40-μm nylon mesh. Erythrocytes were eliminated by treating with BD Pharm Lyse (BD Biosciences). Cells were resuspended in a washing buffer of PBS with 2% FBS and stained with antibodies for 30 min at 4 °C as described ([Kamizaki et al., 2017]). FAPs and SCs were isolated from the suspension by FACS (Aria II, BD Biosciences) using anti-CD31, CD45, Sca-1, PDGFR and VCAM1 antibodies. FAPs were identified as Sca1/PDGFR-positive and CD31-, CD45- and VCAM1-negative cells ([Uezumi et al., 2010]). SCs were identified as VCAM1-positive and CD31-, CD45-, Sca-1 and PDGFR-negative cells ([Liu et al., 2015]).
as §1
FAPs and SCs were cultured on Matrigel-coated dishes (BD Biosciences) in growth medium (GM) consisting of DMEM plus 10% FBS, 1% penicillin-streptomycin and 10% MyoCult (STEMCELL Technologies) for 7 days. Human myogenic cell HSMMs (Lonza) were maintained according to the manufacturer’s instructions with SkGM-2 medium (Lonza).
as §2

C[C@H](CCCC(C)(C)O)[C@H]1CC[C@H]2[C@@H]3CC=C4C[C@@H](O)CC[C@]4(C)[C@H]3CC[C@]12C [25HC, 25-hydroxycholesterol]
senolysis in mDF cells [1]: induced significant senolysis | viability of senescent versus non-senescent SCs (SCs; Doxo-induced senescence, viability on day 5): decreased the viability of senescent SCs | IC50 (SCs; Mus musculus, 168 h, SCs, 7 days in culture): 3.7 µM
